The target in test [1] is T1, EGFR WT (amino acids 669-1011, Accession Number NP_005219.2) (Homo sapiens, UniProt P00533).
T1 construct: purchased Eurofins Discovery; host or cells: bacteria (E. coli, BL21-derived, T7 phage)
Description: KdELECT binding assay (Eurofins Discovery), EGFR WT. A digest of the protocol: (§1)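 Competition binding: WT kinase as T7 phage fusion from E. coli, T790M/L858R produced in HEK-293 and DNA-tagged, incubated 1 h at room temperature with immobilized ligand beads and compound (11-point 3-fold series, 0.9% DMSO). Bead-bound kinase eluted and quantified by qPCR to derive Kd.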

For the next test, the system named is HEK293 cells. Description: Cellular growth inhibition assay (CellTiter-Glo), HEK293 cells. Type of test: cell-based. To be noted: three days compound treatment, CellTiter-Glo 2.0, read-out: CTG HEK293 GI50. A digest of the protocol:
(§2)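 HEK293 or HeLa cells seeded at 500 cells/well in DMEM with 10% FBS, treated after 24 h with titrated compound for three days at 37 °C, 5% CO2. CellTiter-Glo 2.0 luminescence read on Day 0 and Day 3, normalized to DMSO, four-parameter fit giving GI50.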
For orientation: Cellular ATP, detected with luciferase, serves as a proxy for viable cell number.

In another test the target is T2, EGFR (Homo sapiens, UniProt P00533).
T2 construct: purchased
T2 sequence (P00533 25-1210): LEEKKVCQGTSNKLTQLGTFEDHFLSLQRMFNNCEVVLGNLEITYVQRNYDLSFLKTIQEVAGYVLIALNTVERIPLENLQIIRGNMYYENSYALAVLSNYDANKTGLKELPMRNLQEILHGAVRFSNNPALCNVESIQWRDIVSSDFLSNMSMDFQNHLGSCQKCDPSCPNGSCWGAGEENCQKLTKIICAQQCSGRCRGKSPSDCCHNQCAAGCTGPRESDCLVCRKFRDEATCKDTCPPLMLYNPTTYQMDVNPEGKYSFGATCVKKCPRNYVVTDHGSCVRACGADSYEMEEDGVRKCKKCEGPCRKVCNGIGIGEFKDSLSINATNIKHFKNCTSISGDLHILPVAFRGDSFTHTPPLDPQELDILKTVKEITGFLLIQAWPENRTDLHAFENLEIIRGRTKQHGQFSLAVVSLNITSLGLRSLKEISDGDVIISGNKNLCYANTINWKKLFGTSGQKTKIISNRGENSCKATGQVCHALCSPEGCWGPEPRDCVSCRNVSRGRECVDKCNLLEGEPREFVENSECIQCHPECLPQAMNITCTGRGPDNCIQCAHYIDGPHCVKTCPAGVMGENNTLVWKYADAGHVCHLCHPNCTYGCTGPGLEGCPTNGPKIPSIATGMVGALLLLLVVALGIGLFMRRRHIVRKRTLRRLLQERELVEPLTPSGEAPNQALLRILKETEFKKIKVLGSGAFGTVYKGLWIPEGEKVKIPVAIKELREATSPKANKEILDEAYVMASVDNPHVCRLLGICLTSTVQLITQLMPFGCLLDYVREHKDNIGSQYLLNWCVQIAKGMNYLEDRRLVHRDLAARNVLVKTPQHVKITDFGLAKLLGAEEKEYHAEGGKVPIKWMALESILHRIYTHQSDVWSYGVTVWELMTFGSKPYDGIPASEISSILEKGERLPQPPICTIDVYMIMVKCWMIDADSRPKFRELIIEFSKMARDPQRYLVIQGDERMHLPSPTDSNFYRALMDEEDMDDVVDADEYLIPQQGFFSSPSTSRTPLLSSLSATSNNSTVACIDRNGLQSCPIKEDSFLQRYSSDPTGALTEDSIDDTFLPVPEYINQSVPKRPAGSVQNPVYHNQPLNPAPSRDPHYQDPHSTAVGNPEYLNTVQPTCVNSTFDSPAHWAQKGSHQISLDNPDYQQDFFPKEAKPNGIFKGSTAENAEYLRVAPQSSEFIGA
Description: KdELECT binding assay, EGFR. The procedure, abridged:
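Competition binding: DNA- or T7 phage-tagged EGFR was incubated 1 h at room temperature with immobilized ligand beads and an 11-point 3-fold compound series (0.9% DMSO final). Bead-bound kinase was eluted and quantified by qPCR to derive Kd.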

For the next test, the system named is HeLa cells. As to the kind of experiment: Cellular growth inhibition assay (CellTiter-Glo), HeLa cells. As to conditions: three days compound treatment, CellTiter-Glo 2.0, read-out: CTG HELA GI50. Type of test: cell-based. The procedure, abridged: as §2
Test [2] concerns the target T3, EGFR T790M, L858R (amino acids 669-1011 Accession Number NP_005219.2) (Homo sapiens, UniProt P00533, L858R/T790M).
T3 construct: purchased Eurofins Discovery; host or cells: mammalian cells (HEK-293)
Description: KdELECT binding assay (Eurofins Discovery), EGFR T790M, L858R. To be noted: read-out: EGFR DM Kd. The procedure, abridged: as §1

pKd: −log10 of the molar value. Like-named read-outs stand apart in the source and are kept apart here.

T3 sequence (P00533 669-1011 T790M/L858R): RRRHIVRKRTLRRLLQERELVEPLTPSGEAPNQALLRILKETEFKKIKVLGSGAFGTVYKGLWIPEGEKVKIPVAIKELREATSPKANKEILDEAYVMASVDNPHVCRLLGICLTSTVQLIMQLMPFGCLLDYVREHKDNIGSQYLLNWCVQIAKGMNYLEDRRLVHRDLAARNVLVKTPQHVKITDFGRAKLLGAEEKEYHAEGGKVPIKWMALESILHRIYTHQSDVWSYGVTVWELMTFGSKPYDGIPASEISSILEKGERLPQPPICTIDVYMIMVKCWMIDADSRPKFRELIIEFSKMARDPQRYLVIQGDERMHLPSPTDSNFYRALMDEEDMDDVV
T1 sequence (P00533 669-1011): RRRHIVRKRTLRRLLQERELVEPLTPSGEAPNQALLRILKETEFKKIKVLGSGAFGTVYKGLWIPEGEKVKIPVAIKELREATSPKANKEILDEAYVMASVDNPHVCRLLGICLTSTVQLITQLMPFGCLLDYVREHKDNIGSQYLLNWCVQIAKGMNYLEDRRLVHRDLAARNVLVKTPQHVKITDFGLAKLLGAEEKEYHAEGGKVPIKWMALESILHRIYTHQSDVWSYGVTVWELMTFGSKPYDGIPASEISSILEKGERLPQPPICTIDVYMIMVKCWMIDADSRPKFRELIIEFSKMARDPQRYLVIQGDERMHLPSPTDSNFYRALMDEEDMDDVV

A word on the pKd: it is −log10 of the Kd, conventionally taken in molar units. By GI50 is commonly meant the concentration giving 50% growth inhibition. As to `C=CC(=O)Nc1cc(Nc2nccc(-c3cn(C)c4ccccc34)n2)c(OC)cc1N(C)CCN(C)CCCON(C)C(=O)N1N=C(c2cc(F)ccc2F)S[C@@]1(CCCN)c1ccccc1` [Compound I-130, (2S)-2-(3-aminopropyl)-5-(2,5-difluorophenyl)-N-[3-[2-[5-methoxy-N-methyl-4-[[4-(1-methylindol-3-yl)pyrimidin-2-yl]amino]-2-(prop-2-enoylamino)anilino]ethyl-methyl-amino]propoxy]-N-methyl-2-phenyl-1,3,4-thiadiazole-3-carboxamide], the negative logarithm of the Kd (pKd) is 5.60 to 6.30 in test [1], 5.60 to 6.30 at EGFR and over 7.30 in test [2]. The GI50 is 500 to 1500 nM in the test on HEK293 cells (Homo sapiens, 72 h) and 500 to 1500 nM in the test with HeLa cells (Homo sapiens, 72 h).
With `C=CC(=O)N[C@@H]1CN(c2nc(Nc3cn(CCCNC(=O)c4ccc(Nc5ncc6c(n5)N(C5CCCC5)[C@H](CC)C(=O)N6C)c(OC)c4)nc3OC)c3ncn(C)c3n2)C[C@H]1F` [Compound I-131, 4-[(8-cyclopentyl-7-ethyl-5-methyl-6-oxo-7H-pteridin-2-yl)amino]-N-[3-[4-[[2-[(3R,4R)-3-fluoro-4-(prop-2-enoylamino)pyrrolidin-1-yl]-9-methyl-purin-6-yl]amino]-3-methoxy-pyrazol-1-yl]propyl]-3-methoxy-benzamide], the negative logarithm of the Kd (pKd) in test [1] was 5.60 to 6.30; on EGFR, 5.60 to 6.30; in test [2], over 7.30. Moreover, the GI50 with HEK293 cells (Homo sapiens, 72 h) was 500 to 1500 nM; with HeLa cells (Homo sapiens, 72 h), 500 to 1500 nM.
Take `C=CC(=O)Nc1cc(Nc2nccc(-c3cn(C)c4ccccc34)n2)c(OC)cc1N(C)CCN(C)CCOCCOCCOCCOCCOCCOCCOc1ccc(CNc2cc(N3CCCC[C@H]3CCO)nc3c(CC)cnn23)cn1` [Compound I-133]: the figures for the pKd (in test [1]; on EGFR; in test [2]) were 5.60 to 6.30, 5.60 to 6.30 and over 7.30, respectively. Besides, the concentration for 50% growth inhibition (GI50) is under 500 nM in the test on HEK293 cells (Homo sapiens, 72 h) and under 500 nM in the test with HeLa cells (Homo sapiens, 72 h).
Regarding `C=CC(=O)N[C@@H]1CN(c2nc(Nc3cn(CCOCCON(C)C(=O)N4N=C(c5cc(F)ccc5F)S[C@@]4(CCCN)c4ccccc4)nc3OC)c3ncn(C)c3n2)C[C@H]1F` [Compound I-134, (2S)-2-(3-aminopropyl)-5-(2,5-difluorophenyl)-N—[2-[2-[4-[[2-[(3R,4R)-3-fluoro-4-(prop-2-enoylamino)pyrrolidin-1-yl]-9-methyl-purin-6-yl]amino]-3-methoxy-pyrazol-1-yl]ethoxy]ethoxy]-N-methyl-2-phenyl-1,3,4-thiadiazole-3-carboxamide], the negative-log Kd (pKd) (in test [1]; on EGFR; in test [2]) was over 7.30 in each case. Moreover, the concentration for 50% growth inhibition (GI50) in the test with HEK293 cells (Homo sapiens, 72 h) was over 5000 nM; in the test on HeLa cells (Homo sapiens, 72 h), 1500 to 5000 nM.
Consider `C=CC(=O)N[C@@H]1CN(c2nc(Nc3cn(CCCON(C)C(=O)N4N=C(c5cc(F)ccc5F)S[C@@]4(CCCN)c4ccccc4)nc3OC)c3ncn(C)c3n2)C[C@H]1F` [Compound I-135, (2S)-2-(3-aminopropyl)-5-(2,5-difluorophenyl)-N-[3-[4-[[2-[(3R,4R)-3-fluoro-4-(prop-2-enoylamino)pyrrolidin-1-yl]-9-methyl-purin-6-yl]amino]-3-methoxy-pyrazol-1-yl]propoxy]-N-methyl-2-phenyl-1,3,4-thiadiazole-3-carboxamide], for which the pKd (in test [1]; at EGFR; in test [2]) was over 7.30 each time. Also, the GI50 was over 5000 nM in the test on HEK293 cells (Homo sapiens, 72 h) and over 5000 nM in the test with HeLa cells (Homo sapiens, 72 h).
As to `C=CC(=O)N[C@@H]1CN(c2nc(Nc3cn(CCCN4CCN(CCCNC(=O)c5ccc(Nc6ncc7c(n6)N(C6CCCC6)[C@H](CC)C(=O)N7C)c(OC)c5)CC4)nc3OC)c3ncn(C)c3n2)C[C@H]1F` [Compound I-136, 4-[[(7R)-8-cyclopentyl-7-ethyl-5-methyl-6-oxo-7H-pteridin-2-yl]amino]-N-[3-[4-[3-[4-[[2-[(3R,4R)-3-fluoro-4-(prop-2-enoylamino)pyrrolidin-1-yl]-9-methyl-purin-6-yl]amino]-3-methoxy-pyrazol-1-yl]propyl]piperazin-1-yl]propyl]-3-methoxy-benzamide], the pKd (in test [1]; on EGFR; in test [2]) was over 7.30 throughout. Also, the concentration for 50% growth inhibition (GI50) in the test on HEK293 cells (Homo sapiens, 72 h) is 500 to 1500 nM; in the test with HeLa cells (Homo sapiens, 72 h), under 500 nM.
On to `C=CC(=O)N[C@@H]1CN(c2nc(Nc3cn(CCCN4CCN(CCCON(C)C(=O)N5N=C(c6cc(F)ccc6F)S[C@@]5(CCCN)c5ccccc5)CC4)nc3OC)c3ncn(C)c3n2)C[C@H]1F` [Compound I-137, (2S)-2-(3-aminopropyl)-5-(2,5-difluorophenyl) —N-[3-[4-[3-[4-[[2-[(3R,4R)-3-fluoro-4-(prop-2-enoylamino)pyrrolidin-1-yl]-9-methyl-purin-6-yl]amino]-3-methoxy-pyrazol-1-yl]propyl]piperazin-1-yl]propoxy]-N-methyl-2-phenyl-1,3,4-thiadiazole-3-carboxamide], for which the pKd (in test [1]; on EGFR; in test [2]) was over 7.30 in each case. Also, the GI50 is over 5000 nM in the test on HEK293 cells (Homo sapiens, 72 h) and 1500 to 5000 nM with HeLa cells (Homo sapiens, 72 h).
Turning to `C=CC(=O)N[C@@H]1CN(c2nc(Nc3cn(CCOc4ccc(CNc5cc(N6CCCC[C@H]6CCO)nc6c(CC)cnn56)cn4)nc3OC)c3ncn(C)c3n2)C[C@H]1F` [Compound I-139, N-[(3R,4R)-1-[6-[[1-[2-[[5-1[[[3-ethyl-5-[(2S)-2-(2-hydroxyethyl)-1-piperidyl]pyrazolo[1,5-a]pyrimidin-7-yl]amino]methyl]-2-pyridyl]oxy]ethyl]-3-methoxy-pyrazol-4-yl]amino]-9-methyl-purin-2-yl]-4-fluoro-pyrrolidin-3-yl]prop-2-enamide], the pKd in test [1] is 6.30 to 7.30; on EGFR, 6.30 to 7.30; in test [2] it was over 7.30. Moreover, the 50% growth inhibitory concentration (GI50) with HEK293 cells (Homo sapiens, 72 h) is under 500 nM; in the test on HeLa cells (Homo sapiens, 72 h) it was under 500 nM.
Consider `C=CC(=O)N[C@@H]1CN(c2nc(Nc3cn(CCOCCOCCOCCOCCOCCOCCOc4ccc(CNc5cc(N6CCCC[C@@H]6CCO)nc6c(CC)cnn56)cn4)nc3OC)c3ncn(C)c3n2)C[C@H]1F` [Compound I-140, N—[(3R,4R)-1-[6-[[1-[2-[2-[2-[2-[2-[2-[2-[[5-111[[[3-ethyl-5-[(2R)-2-(2-hydroxyethyl)-1-piperidyl]pyrazolo[1,5-a]pyrimidin-7-yl]amino]methyl]-2-pyridyl]oxy]ethoxy]ethoxy]ethoxy]ethoxy]ethoxy]ethoxy]ethyl]-3-methoxy-pyrazol-4-yl]amino]-9-methyl-purin-2-yl]-4-fluoro-pyrrolidin-3-yl]prop-2-enamide], for which the pKd in test [1] was 6.30 to 7.30; on EGFR, 6.30 to 7.30; in test [2], over 7.30. For the same compound, the 50% growth inhibitory concentration (GI50) in the test with HEK293 cells and with HeLa cells was under 500 nM in each case.
For `C=CC(=O)Nc1cc(Nc2nccc(-c3cn(C)c4ccccc34)n2)c(OC)cc1N(C)CCN(C)CCOCCOCCOc1ccc(CNc2cc(N3CCCC[C@H]3CCO)nc3c(CC)cnn23)cn1` [Compound I-141, N-[2-[2-[2-[2-[2-[[5-[[[3-ethyl-5-[(2S)-2-(2-hydroxyethyl)-1-piperidyl]pyrazolo[1,5-a]pyrimidin-7-yl]amino]methyl]-2-pyridyl]oxy]ethoxy]ethoxy]ethyl-methyl-amino]ethyl-methyl-amino]-4-methoxy-5-[[4-(1-methylindol-3-yl)pyrimidin-2-yl]amino]phenyl]prop-2-enamide], the negative-log Kd (pKd) in test [1] is 6.30 to 7.30; at EGFR it was 6.30 to 7.30; in test [2] it was over 7.30. Further, the concentration for 50% growth inhibition (GI50) in the test with HEK293 cells (Homo sapiens, 72 h) was under 500 nM; in the test with HeLa cells (Homo sapiens, 72 h), under 500 nM.
`C=CC(=O)Nc1cc(Nc2nccc(-c3cn(C)c4ccccc34)n2)c(OC)cc1N(C)CCN(C)CCCN1CCN(CCCOc2ccc(CNc3cc(N4CCCC[C@H]4CCO)nc4c(CC)cnn34)cn2)CC1` [Compound I-149, N-[2-[2-[3-[4-[3-[[5-[[[3-ethyl-5-[(2S)-2-(2-hydroxyethyl)-1-piperidyl]pyrazolo[1,5-a]pyrimidin-7-yl]amino]methyl]-2-pyridyl]oxy]propyl]piperazin-1-yl]propyl-methyl-amino]ethyl-methyl-amino]-4-methoxy-5-[[4-(1-methylindol-3-yl)pyrimidin-2-yl]amino]phenyl]prop-2-enamide]: the pKd in test [1] is 5.60 to 6.30; on EGFR it was 5.60 to 6.30; in test [2], over 7.30. Also, the GI50 was under 500 nM in the test on HEK293 cells (Homo sapiens, 72 h) and under 500 nM in the test with HeLa cells (Homo sapiens, 72 h).
Regarding `C=CC(=O)N[C@@H]1CN(c2nc(Nc3cn(CCCCNS(=O)(=O)c4ccc(Nc5ncc(Br)c(Nc6cccc(F)c6C(N)=O)n5)cc4)nc3OC)c3ncn(C)c3n2)CC1F` (stereo partly drawn) [Compound I-150, 2-[[5-bromo-2-[4-[4-[4-[[2-[(4R)-3-fluoro-4-(prop-2-enoylamino)pyrrolidin-1-yl]-9-methyl-purin-6-yl]amino]-3-methoxy-pyrazol-1-yl]butylsulfamoyl]anilino]pyrimidin-4-yl]amino]-6-fluoro-benzamide], the negative-log Kd (pKd) (in test [1]; on EGFR; in test [2]) was over 7.30 in each case. Also, the concentration for 50% growth inhibition (GI50) is 500 to 1500 nM in the test with HEK293 cells (Homo sapiens, 72 h) and over 5000 nM in the test on HeLa cells (Homo sapiens, 72 h).

The values are drawn from patent publication US20250032623A1, “HETEROBIFUNCTIONAL COMPOUNDS AND THEIR USE IN TREATING DISEASE” (HALDA THERAPEUTICS OPCO, INC., priority 2021, published 2025).
